Test results reported in PubChem BioAssay (NCI).
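Interpolation was linear, between the two tested concentrations surrounding the appropriate level; five concentrations were tested over 48 hours in 96-well plates. TGI: concentration producing complete growth inhibition.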

Key:
Assay in all cases: inhibition of tumour cell growth, NCI panel, 48 h
A549 NSCLC = tested on: A549 NSCLC
COLO 205 colon = tested on: COLO 205 colon
HS 578T breast = tested on: HS 578T breast
NCI-H23 lung = tested on: NCI-H23 lung
SF-268 CNS = tested on: SF-268 CNS
SF-295 CNS = tested on: SF-295 CNS
SK-MEL-28 melanoma = tested on: SK-MEL-28 melanoma
SNB-19 CNS = tested on: SNB-19 CNS
TK-10 renal = tested on: TK-10 renal
UACC-257 melanoma = tested on: UACC-257 melanoma

| SMILES | TGI (A549 NSCLC) [µM] | TGI (COLO 205 colon) [µM] | TGI (HS 578T breast) [µM] | TGI (NCI-H23 lung) [µM] | TGI (SF-268 CNS) [µM] | TGI (SF-295 CNS) [µM] | TGI (SK-MEL-28 melanoma) [µM] | TGI (SNB-19 CNS) [µM] | TGI (TK-10 renal) [µM] | TGI (UACC-257 melanoma) [µM] |
| --- | --- | --- | --- | --- | --- | --- | --- | --- | --- | --- |
| Cc1cc(C)cc(Nc2cc(=O)[nH]c(=O)[nH]2)c1 | > 100 | > 100 | > 100 | > 100 | > 100 | > 100 | > 100 | > 100 | > 100 | > 100 |
| CCCCCC(=O)NC(=S)Nc1nn[nH]n1 | > 100 | > 100 | > 100 | > 100 | > 100 | > 100 | > 100 | > 100 | > 100 | > 100 |
| Cc1ccc(/C(O)=C/C(=O)C(=O)/C=C(\O)c2ccc(C)cc2C)c(C)c1 | 4.16 | 3.66 | 5.15 | 3.5 | 4.02 | 3.38 | 3.84 | 5.67 | 3.45 | 3.21 |
| O=c1oc2ccccc2c(Nc2ccc3c(c2)Oc2ccccc2O3)c1[N+](=O)[O-] | > 100 | > 100 | 82.8 | 46.1 | 48.4 | 40.5 | 50 | 40.4 | 40.1 | 91.2 |
| C1CNCCNCCN1 | > 100 | > 100 | > 100 | > 100 | > 100 | > 100 | > 100 | > 100 | > 100 | > 100 |
| O=c1c2ncn(COCCCl)c2n(-c2ccccc2)c(=S)n1-c1ccccc1 | > 100 | > 100 | > 100 | > 100 | > 100 | > 100 | > 100 | > 100 | > 100 | > 100 |
| CC1=NN2C(=N)/C(=C/c3ccco3)C(=O)N=C2S1 | > 100 | > 100 | > 100 | > 100 | > 100 | > 100 | > 100 | > 100 | > 100 | > 100 |
| OCC1OC(n2cnc3c(Cl)nc(Nc4ccccc4)nc32)CC1O (stereo not drawn) | 36.4 | > 100 | 90.1 | > 100 | > 100 | > 100 |  | > 100 | > 100 | > 100 |
| O=C(O)c1ccc(S(=O)(=O)c2ccccc2[N+](=O)[O-])cc1 | > 10 | > 10 | > 10 | > 10 | > 10 | > 10 | > 10 | > 10 | > 10 | > 10 |
| NP(=O)(OCC1=CC(=O)c2ccccc2C1=O)N(CCBr)CCBr (stereo not drawn) | 26.5 | > 21.1 | 90.7 | 14.2 | 26.7 | 25.2 | 11.7 | > 55.1 | 33.1 | 4.21 |
| C=C1C(=O)CC2C(=O)C(C)(O)CC/C=C(\C)C(=O)CC12 (stereo not drawn) | > 100 | 27.4 | 43.5 | 45.7 | > 76.1 | > 100 | > 55.6 | > 100 | 34.4 | 55.5 |
| CC1=NN(c2ccc(S(=O)(=O)O)cc2)C2(C1)SCC(=O)N2c1nc2ccccc2s1 (stereo not drawn) | > 100 | > 100 | > 100 | > 100 | > 100 | > 100 | > 100 | > 100 | > 100 | > 100 |
| CN(C)c1ccc(C2SCC(=O)N2NS(=O)(=O)c2cccc(C(=O)O)c2)cc1 (stereo not drawn) | > 100 | > 100 | > 100 | > 100 | > 100 | > 100 | > 100 | > 100 | > 100 | > 100 |
| O=c1nc2c(c(-c3ccccc3Cl)[nH]1)COC/C2=C\c1ccccc1Cl |  | > 100 | > 100 | > 100 | > 100 | > 100 | > 100 | > 100 | > 100 | > 100 |
| Cc1ccc(-c2cc(N)n(-c3nc4c(c(=O)n(C)c(=O)n4C)n3C)n2)cc1 | > 100 | > 100 | > 100 | > 100 | > 100 | > 100 | > 100 | > 100 | > 100 | > 100 |
| CN(C)Cc1cc(C(=O)/C=C/c2ccccc2Cl)cc(CN(C)C)c1O | 38.7 | 18.5 | 46.3 | 35 | 61.3 | 28.3 | 27.9 | 27.2 | 34.9 | 30.1 |
| COc1ccc(Nc2nc(NS(=O)(=O)c3cc(C)c(Cl)cc3S)n[nH]2)cc1 | > 100 | > 100 | > 100 | > 100 | > 100 | > 100 | > 100 | > 100 | > 100 | > 100 |
| CCn1nc2c3c(ncn3C(C)(C)O2)c1=O | > 100 | > 100 | > 100 | > 100 | > 100 | > 100 | > 100 | > 100 | > 100 | > 100 |
| Cc1ccc([C@H]2CC(=O)C[C@H](c3ccc(C)cc3)C23C(=O)c2ccccc2C3=O)cc1 | > 100 | > 100 | 58.7 | > 100 | > 100 | 51.9 | > 100 | 79.7 | > 100 | 49.7 |
| O=c1c2c([N+](=O)[O-])cccc2nc2[nH]c3ccccc3n12 | > 75 | > 75 | > 75 | > 75 | 62 | > 75 | > 75 | > 75 | 51.6 | > 75 |
| O=C(NCCCCCCNCc1cccc2ccccc12)Nc1cccc2ccccc12 | > 100 | > 100 | > 100 | > 100 | > 100 | > 100 | > 100 | > 100 | > 100 | > 100 |
| CC(=O)O[C@H]1CC[C@@]2(C)C(=CC[C@H]3[C@@H]4C[C@H](N5CCCC5)[C@H](OC(C)=O)[C@@]4(C)CC[C@@H]32)C1 | > 100 | > 100 | > 100 | > 100 | > 100 | > 100 | > 100 | > 100 | > 100 | > 68.2 |
